The target of assay [1] is T1, SIRT1 (Homo sapiens, UniProt Q96EB6).
T1 sequence (Q96EB6 1-747): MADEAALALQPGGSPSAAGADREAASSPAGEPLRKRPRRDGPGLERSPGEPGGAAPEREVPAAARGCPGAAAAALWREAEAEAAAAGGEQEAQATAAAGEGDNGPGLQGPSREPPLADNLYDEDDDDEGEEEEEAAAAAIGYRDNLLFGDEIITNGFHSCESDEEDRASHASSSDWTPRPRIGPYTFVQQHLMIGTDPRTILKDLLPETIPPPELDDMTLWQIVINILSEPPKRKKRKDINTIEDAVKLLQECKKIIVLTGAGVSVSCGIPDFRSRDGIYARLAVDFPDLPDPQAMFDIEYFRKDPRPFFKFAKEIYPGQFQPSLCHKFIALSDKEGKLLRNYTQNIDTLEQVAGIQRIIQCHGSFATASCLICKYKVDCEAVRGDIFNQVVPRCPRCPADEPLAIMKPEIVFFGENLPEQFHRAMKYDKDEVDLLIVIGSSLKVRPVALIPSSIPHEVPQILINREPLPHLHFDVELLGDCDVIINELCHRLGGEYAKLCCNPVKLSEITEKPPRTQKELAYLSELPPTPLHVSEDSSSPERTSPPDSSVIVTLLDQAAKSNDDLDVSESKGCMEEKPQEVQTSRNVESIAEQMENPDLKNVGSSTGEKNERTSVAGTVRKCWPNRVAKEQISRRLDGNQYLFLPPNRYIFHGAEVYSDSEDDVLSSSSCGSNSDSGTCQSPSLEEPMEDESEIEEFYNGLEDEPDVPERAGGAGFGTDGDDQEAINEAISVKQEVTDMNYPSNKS
As to the kind of experiment: Trp mass spectrometry assay of SIRT1 deacetylase activation. It counts as biochemical. Particulars: Trp peptide substrate; for TRP EC1.5 (μM): concentration that results in 150% activation of SIRT1; for TRP % Fold Act: percent maximum fold activation relative to control (100%). Summed up: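 His-tagged human SIRT1 (E. coli-expressed, 10 nM) was incubated with 0.5 μM Ac-RHKK(Ac)W-NH2 peptide and 120 μM βNAD+ for 25 min at 25 °C in HEPES pH 7.5, 1500 mM NaCl, with varying compound; formic acid quench. OAADPR or deacetylated peptide was quantified by mass spectrometry against DMSO control. EC1.5 (150% activation) and percent maximum activation were derived.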

The target of assay [2] is T1, SIRT1. As to the kind of experiment: TAMRA based mass spectrometry assay of SIRT1 deacetylase activation. It counts as biochemical. Particulars: TAMRA peptide substrate; for TAMRA EC1.5 (μM): concentration that results in 150% activation of SIRT1; for TAMRA % Fold Act: percent maximum fold activation relative to control (100%). Summed up: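 E. coli-expressed N-terminal His-tagged human SIRT1 (10 nM) was incubated 25 min at 25 °C, pH 8 Tris-acetate buffer, with 0.5 μM TAMRA-labelled p53-derived acetyl-peptide, 120 μM NAD+ and varying compound; formic acid stop, mass-spec quantitation of deacetylated product vs DMSO controls. EC1.5 = concentration giving 150% activation.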

With `O=C(Nc1cccc(N2CCOCC2)n1)c1ccnc2cc(-c3cccc(C(F)(F)F)c3)nn12` [Compound 90], in assay [1], the “TRP EC1.5 (μM)” value is on record as “C (EC1.5>25 μM)” and the “TRP % Fold Act” value was “B (Fold Activation<350%)”. In assay [2], the “TAMRA EC1.5 (μM)” value is recorded as “C (EC1.5>25 μM)” and the “TAMRA % Fold Act” value is listed as “B (Fold Activation<350%)”.
In the case of `O=C(Nc1cccc(CN2CCOCC2)n1)c1ccnc2cc(-c3cccc(C(F)(F)F)c3)nn12` [Compound 91], in assay [1], the “TRP EC1.5 (μM)” value is “C (EC1.5>25 μM)” and the “TRP % Fold Act” value was “B (Fold Activation<350%)”. Also, in assay [2], the “TAMRA EC1.5 (μM)” value is given as “C (EC1.5>25 μM)” and the “TAMRA % Fold Act” value was “B (Fold Activation<350%)”.
In the case of `O=C(Nc1ccncn1)c1ccnc2cc(-c3cccc(C(F)(F)F)c3)nn12` [Compound 92], in assay [1], the “TRP EC1.5 (μM)” value is given as “C (EC1.5>25 μM)” and the “TRP % Fold Act” value is reported as “B (Fold Activation<350%)”. Moreover, in assay [2], the “TAMRA EC1.5 (μM)” value is given as “C (EC1.5>25 μM)” and the “TAMRA % Fold Act” value was “B (Fold Activation<350%)”.
For the molecule `O=C(Nc1ccnc2cc(-c3ccccc3C(F)(F)F)nn12)c1nccs1` [Compound 93], in assay [1], the “TRP EC1.5 (μM)” value is given as “C (EC1.5>25 μM)” and the “TRP % Fold Act” value is reported as “B (Fold Activation<350%)”. In assay [2], the “TAMRA EC1.5 (μM)” value was “B (EC1.5 1−25 μM)” and the “TAMRA % Fold Act” value is on record as “B (Fold Activation<350%)”.
With `Cn1cnc(C(=O)Nc2ccnc3cc(-c4ccccc4C(F)(F)F)nn23)c1` [Compound 94], in assay [1], the “TRP EC1.5 (μM)” value is reported as “C (EC1.5>25 μM)” and the “TRP % Fold Act” value was “B (Fold Activation<350%)”. In addition, in assay [2], the “TAMRA EC1.5 (μM)” value is listed as “A (EC1.5<1 μM)” and the “TAMRA % Fold Act” value is listed as “A (Fold activation≧350%)”.
Taken in the same sequence, the figures for `O=C(Nc1ccnc2cc(-c3cccc(C(F)(F)F)c3)nn12)c1nccs1` [Compound 95] were “C (EC1.5>25 μM)”, “B (Fold Activation<350%)”, “C (EC1.5>25 μM)” and “B (Fold Activation<350%)”.
Taken in the same sequence, the figures for `Cn1cnc(C(=O)Nc2ccnc3cc(-c4cccc(C(F)(F)F)c4)nn23)c1` [Compound 96] were “C (EC1.5>25 μM)”, “B (Fold Activation<350%)”, “B (EC1.5 1−25 μM)” and “B (Fold Activation<350%)”.
As to `O=C(Nc1ccnc2cc(-c3cccc(C(F)(F)F)c3)nn12)c1ccncn1` [Compound 97], in assay [1], the “TRP EC1.5 (μM)” value was “C (EC1.5>25 μM)” and the “TRP % Fold Act” value is recorded as “B (Fold Activation<350%)”. Further, in assay [2], the “TAMRA EC1.5 (μM)” value is “C (EC1.5>25 μM)” and the “TAMRA % Fold Act” value is “B (Fold Activation<350%)”.
`O=C(Nc1ccnc2cc(-c3cccc(C(F)(F)F)c3)nn12)c1cccc(N2CCC2)n1` [Compound 98]: in assay [1], the “TRP EC1.5 (μM)” value is reported as “C (EC1.5>25 μM)” and the “TRP % Fold Act” value was “B (Fold Activation<350%)”. Moreover, in assay [2], the “TAMRA EC1.5 (μM)” value is listed as “C (EC1.5>25 μM)” and the “TAMRA % Fold Act” value was “B (Fold Activation<350%)”.
On to `O=C(Nc1cnccn1)c1ccnc2cc(-c3ccccc3C(F)(F)F)nn12` [Compound 99], for which, in assay [1], the “TRP EC1.5 (μM)” value is given as “C (EC1.5>25 μM)” and the “TRP % Fold Act” value was “B (Fold Activation<350%)”. In addition, in assay [2], the “TAMRA EC1.5 (μM)” value is “C (EC1.5>25 μM)” and the “TAMRA % Fold Act” value is recorded as “B (Fold Activation<350%)”.
As for `O=C(Nc1ncccn1)c1ccnc2cc(-c3ccccc3C(F)(F)F)nn12` [Compound 100], in assay [1], the “TRP EC1.5 (μM)” value is recorded as “B (EC1.5 1−25 μM)” and the “TRP % Fold Act” value is “B (Fold Activation<350%)”. Also, in assay [2], the “TAMRA EC1.5 (μM)” value was “B (EC1.5 1−25 μM)” and the “TAMRA % Fold Act” value is “A (Fold activation≧350%)”.
Turning to `O=C(Nc1ncccn1)c1ccnc2cc(-c3cccc(C(F)(F)F)c3)nn12` [Compound 101], in assay [1], the “TRP EC1.5 (μM)” value was “B (EC1.5 1−25 μM)” and the “TRP % Fold Act” value is “B (Fold Activation<350%)”. For the same molecule, in assay [2], the “TAMRA EC1.5 (μM)” value is listed as “C (EC1.5>25 μM)” and the “TAMRA % Fold Act” value is “B (Fold Activation<350%)”.
`O=C(Nc1cnccn1)c1ccnc2cc(-c3cccc(C(F)(F)F)c3)nn12` [Compound 102]: in assay [1], the “TRP EC1.5 (μM)” value is on record as “C (EC1.5>25 μM)” and the “TRP % Fold Act” value is given as “B (Fold Activation<350%)”. For the same molecule, in assay [2], the “TAMRA EC1.5 (μM)” value was “C (EC1.5>25 μM)” and the “TAMRA % Fold Act” value is “B (Fold Activation<350%)”.
As to `O=C(Nc1ccnc2cc(-c3ccccc3C(F)(F)F)nn12)c1cccnc1` [Compound 103], in assay [1], the “TRP EC1.5 (μM)” value is recorded as “C (EC1.5>25 μM)” and the “TRP % Fold Act” value was “B (Fold Activation<350%)”. Besides, in assay [2], the “TAMRA EC1.5 (μM)” value is given as “B (EC1.5 1−25 μM)” and the “TAMRA % Fold Act” value is “B (Fold Activation<350%)”.
As to `O=C(Nc1ccnc2cc(-c3ccccc3C(F)(F)F)nn12)c1cncnc1` [Compound 104], in assay [1], the “TRP EC1.5 (μM)” value is given as “C (EC1.5>25 μM)” and the “TRP % Fold Act” value is recorded as “B (Fold Activation<350%)”. For the same molecule, in assay [2], the “TAMRA EC1.5 (μM)” value is recorded as “C (EC1.5>25 μM)” and the “TAMRA % Fold Act” value was “B (Fold Activation<350%)”.
As for `Cc1ccnc(C(=O)Nc2ccnc3cc(-c4ccccc4C(F)(F)F)nn23)c1` [Compound 105], in assay [1], the “TRP EC1.5 (μM)” value is given as “C (EC1.5>25 μM)” and the “TRP % Fold Act” value is on record as “B (Fold Activation<350%)”. In assay [2], the “TAMRA EC1.5 (μM)” value is reported as “A (EC1.5<1 μM)” and the “TAMRA % Fold Act” value was “A (Fold activation≧350%)”.
With `Cc1cc(C)nc(C(=O)Nc2ccnc3cc(-c4ccccc4C(F)(F)F)nn23)c1` [Compound 106], in assay [1], the “TRP EC1.5 (μM)” value is “C (EC1.5>25 μM)” and the “TRP % Fold Act” value is listed as “B (Fold Activation<350%)”. Also, in assay [2], the “TAMRA EC1.5 (μM)” value is on record as “A (EC1.5<1 μM)” and the “TAMRA % Fold Act” value was “A (Fold activation≧350%)”.
Taken in the same sequence, the figures for `Cc1cnc(C(=O)Nc2ccnc3cc(-c4ccccc4C(F)(F)F)nn23)cn1` [Compound 108] were “C (EC1.5>25 μM)”, “B (Fold Activation<350%)”, “A (EC1.5<1 μM)” and “A (Fold activation≧350%)”.
The corresponding values for `Cc1cccc(C(=O)Nc2ccnc3cc(-c4ccccc4C(F)(F)F)nn23)n1` [Compound 109] are “C (EC1.5>25 μM)”, “B (Fold Activation<350%)”, “A (EC1.5<1 μM)” and “A (Fold activation≧350%)”.
The corresponding values for `O=C(Nc1ccnc2cc(-c3ccccc3C(F)(F)F)nn12)c1ccn[nH]1` [Compound 110] are “B (EC1.5 1−25 μM)”, “B (Fold Activation<350%)”, “B (EC1.5 1−25 μM)” and “A (Fold activation≧350%)”.
Regarding `COc1cccc(C(=O)Nc2ccnc3cc(-c4ccccc4C(F)(F)F)nn23)n1` [Compound 111], in assay [1], the “TRP EC1.5 (μM)” value was “C (EC1.5>25 μM)” and the “TRP % Fold Act” value was “B (Fold Activation<350%)”. Further, in assay [2], the “TAMRA EC1.5 (μM)” value is given as “A (EC1.5<1 μM)” and the “TAMRA % Fold Act” value was “A (Fold activation≧350%)”.
`Cc1cccnc1C(=O)Nc1ccnc2cc(-c3ccccc3C(F)(F)F)nn12` [Compound 112]: in assay [1], the “TRP EC1.5 (μM)” value is recorded as “C (EC1.5>25 μM)” and the “TRP % Fold Act” value is reported as “B (Fold Activation<350%)”. In addition, in assay [2], the “TAMRA EC1.5 (μM)” value is listed as “A (EC1.5<1 μM)” and the “TAMRA % Fold Act” value is recorded as “A (Fold activation≧350%)”.
The corresponding values for `O=C(Nc1ccnc2cc(-c3ccccc3C(F)(F)F)nn12)c1ncccc1F` [Compound 113] are “B (EC1.5 1−25 μM)”, “B (Fold Activation<350%)”, “A (EC1.5<1 μM)” and “A (Fold activation≧350%)”.
Taken in the same sequence, the figures for `O=C(Nc1ccnc2cc(-c3ccccc3C(F)(F)F)nn12)c1cccc(OC[C@H](O)CO)n1` [Compound 114] were “A (EC1.5<1 μM)”, “A (Fold activation≧350%)”, “A (EC1.5<1 μM)” and “A (Fold activation≧350%)”.
Taken in the same sequence, the figures for `O=C(Nc1ccnc2cc(-c3ccccc3C(F)(F)F)nn12)c1cccc(OC[C@@H](O)CO)n1` [Compound 115] were “A (EC1.5<1 μM)”, “A (Fold activation≧350%)”, “A (EC1.5<1 μM)” and “A (Fold activation≧350%)”.

The values above are taken from patent US20140288052A1, “SUBSTITUTED BICYCLIC AZA-HETEROCYCLES AND ANALOGUES AS SIRTUIN MODULATORS” (GlaxoSmithKline, LLC, priority 2011, published 2014).
